Results from publication PMC8093080 (Biochemistry, 2020).

Target: T1, trp RNA-binding attenuation protein (TRAP) (Geobacillus stearothermophilus, UniProt Q9X6J6)
T1 sequence (Q9X6J6 1-74): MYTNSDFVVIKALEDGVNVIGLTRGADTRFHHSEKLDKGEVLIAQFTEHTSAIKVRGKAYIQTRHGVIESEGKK
Assay: ITC at […]°C in phosphate buffer

Compound: N[C@@H](Cc1c[nH]c2ccccc12)C(=O)O [Trp, tryptophan]
- Kd: 115 ± 3 nM
